Reference: patent US20220332708A1 (Cytokinetics, Inc., priority 2021, published 2022)

System: Bovine cardiac myofibrils
Assay: Dose-dependent myofibril ATPase modulation (calcium-buffered, pyruvate kinase and lactate dehydrogenase-coupled ATPase assay at pCa25)
Assay type: biochemical
Conditions: concentration at which ATPase activity was 1.4-fold higher than the bottom of the dose curve, mean of a minimum of two independent tests
Method: In Vitro Model of Dose-Dependent Myofibril ATPase Modulation
Dose responses were measured using a calcium-buffered, pyruvate kinase and lactate dehydrogenase-coupled ATPase assay containing the following reagents (concentrations expressed are final assay concentrations): Potassium PIPES (12 mM), MgCl2 (2 mM), ATP (1 mM), DTT (1 mM), BSA (0.1 mg/ml), NADH (0.5 mM), PEP (1.5 mM), pyruvate kinase (4 U/ml), lactate dehydrogenase (8 U/ml), and antifoam (90 ppm). The pH was adjusted to 6.80 at 22° C. by addition of potassium hydroxide. Calcium levels were controlled by a buffering system containing 0.6 mM EGTA and varying concentrations of calcium, to achieve a free calcium concentration of 1×10^−4 M to 1×10^−8 M.
Bovine cardiac myofibrils were obtained by homogenizing the appropriate tissue in the presence of detergent. Such treatment removes membranes and majority of soluble cytoplasmic proteins but leaves intact cardiac sarcomeric acto-myosin apparatus. Concentrations of myofibrils were adjusted to achieve the necessary rate of ATP hydrolysis (typically 0.25-1.0 mg/ml).
Chemical entity dose responses were measured at the calcium concentration corresponding to 25% of maximal ATPase activity (pCa25), so a preliminary experiment was performed to test the response of the ATPase activity to free calcium concentrations in the range of 1×10^−4 M to 1×10^−8 M. Subsequently, the assay mixture was adjusted to the pCa25. Assays were performed by first preparing a dilution series of test chemical entity, each with an assay mixture containing potassium Pipes, MgCl2, BSA, DTT, pyruvate kinase, lactate dehydrogenase, myofibrils, antifoam, EGTA, CaCl2), and water. The assay was started by adding an equal volume of solution containing potassium Pipes, MgCl2, BSA, DTT, ATP, NADH, PEP, antifoam, and water. ATP hydrolysis was monitored by absorbance at 340 nm. The resulting dose response curve was fit by the 4 parameter equation y=Bottom+((Top−Bottom)/(1+((EC50/X)^Hill))). […] AC1.4 values reported in the table below are mean values based on a minimum of two independent tests.

SMILES	AC1.4
Cc1[nH]c(S(=O)(=O)N[C@@H]2Cc3cc(Cl)c(Cl)cc3[C@H]2O)cc1C(=O)N1CC(C)(C#N)C1 (racemic) [Compound 99]	0.2635 µM
Cc1[nH]c(S(=O)(=O)N[C@@H]2CCc3c([nH]c4ccccc34)C2)cc1C(=O)N1CC(C)(C#N)C1 [Compound 48, (R)-4-(3-cyano-3-methylazetidine-1-carbonyl)-5-methyl-N-(2,3,4,9-tetrahydro-1H-carbazol-2-yl)-1H-pyrrole-2-sulfonamide]	0.04675 µM
CNc1cc2c(cc1S(=O)(=O)N[C@H](C)Cc1cc3ccc(F)cc3[nH]1)c(=O)[nH]c(=O)n2C [Compound 26, (R)-N-(1-(6-fluoro-1H-indo1-2-yl)propan-2-yl)-1-methyl-7-(methylamino)-2,4-dioxo-1,2,3,4-tetrahydroquinazoline-6-sulfonamide]	2.215 µM
Cc1[nH]c(S(=O)(=O)N[C@H]2C[C@H](n3cc(C(F)(F)F)cn3)C2)cc1C(=O)N1CC(C#N)C1 [Compound 55, 4-(3-cyanoazetidine-1-carbonyl)-5-methyl-N-((trans)-3-(4-(trifluoromethyl)-1H-pyrazol-1-yl)cyclobutyl)-1H-pyrrole-2-sulfonamide]	5.7638 µM
Cc1[nH]c(S(=O)(=O)N[C@H]2COc3ccc(Cl)cc3[C@@H]2O)cc1C(=O)N1CC(C)(C#N)C1 [Compound 75, N-((3S,4S)-6-chloro-4-hydroxychroman-3-yl)-4-(3-cyano-3-methylazetidine-1-carbonyl)-5-methyl-1H-pyrrole-2-sulfonamide]	0.5877 µM
Cc1cc(S(=O)(=O)N[C@@H]2COc3cc(F)c(Cl)cc3[C@@H]2O)cc(N2CC(O)C2)n1 [Compound 86, N-((3R,4S)-6-chloro-7-fluoro-4-hydroxychroman-3-yl)-2-(3-hydroxyazetidin-1-yl)-6-methylpyridine-4-sulfonamide]	13.53 µM
Cc1[nH]c(S(=O)(=O)N[C@H]2C[C@H](c3cc(C(F)(F)F)ccn3)C2)cc1C(=O)N1CC(C)(C#N)C1 [Compound 58]	1.0081 µM
Cc1cnc(-c2cc(S(=O)(=O)N[C@H]3C[C@H](n4cc(C(F)(F)F)c(C)n4)C3)[nH]c2C)o1 [Compound 66, 5-Methyl-N-((trans)-3-(3-methyl-4-(trifluoromethyl)-1H-pyrazol-1-yl)cyclobutyl)-4-(5-methyloxazol-2-yl)-1H-pyrrole-2-sulfonamide]	1.1207 µM
Cc1[nH]c(S(=O)(=O)N[C@H]2Cc3cc(F)c(Cl)cc3C2)cc1C(=O)N1CC(C)(C#N)C1 (single isomer, unassigned) [Compound 84]	0.303 µM
Cc1[nH]c(S(=O)(=O)N[C@H]2C[C@H](c3ccc(Cl)cc3)C2)cc1C(=O)N1CC(C)(C#N)C1 [Compound 53, N-((trans)-3-(4-chlorophenyl)cyclobutyl)-4-(3-cyano-3-methylazetidine-1-carbonyl)-5-methyl-1H-pyrrole-2-sulfonamide]	0.6222 µM
Cc1[nH]c(S(=O)(=O)N[C@H]2C[C@@H](c3cccc(C(F)(F)F)c3)C2)cc1C(=O)N1CC(C)(C#N)C1 [Compound 54, 4-(3-Cyano-3-methylazetidine-1-carbonyl)-5-methyl-N-((cis)-3-(3-(trifluoromethyl)phenyl)cyclobutyl)-1H-pyrrole-2-sulfonamide]	2.9934 µM
Cc1[nH]c(S(=O)(=O)N[C@@H]2Cc3ccc(Cl)cc3C2)cc1C(=O)N1CC(C)(C#N)C1 [Compound 69, (R)-N-(5-chloro-2,3-dihydro-1H-inden-2-yl)-4-(3-cyano-3-methylazetidine-1-carbonyl)-5-methyl-1H-pyrrole-2-sulfonamide]	0.166 µM
Cc1[nH]c(S(=O)(=O)NC23COc4cc(F)c(Cl)cc4C2C3)cc1C(=O)N1CC(C#N)C1 (stereo not drawn) [Compound 81, N-(6-chloro-5-fluoro-1,7b-dihydrocyclopropa[c]chromen-1a(2H)-yl)-4-(3-cyanoazetidine-1-carbonyl)-5-methyl-1H-pyrrole-2-sulfonamide]	1.194 µM
Cc1[nH]c(S(=O)(=O)N[C@@H]2Cc3cc(F)c(Cl)cc3C2)cc1C(=O)N1CC(C(F)(F)F)C1 [Compound 93, (R)-N-(5-chloro-6-fluoro-2,3-dihydro-1H-inden-2-yl)-5-methyl-4-(3-(trifluoromethyl)azetidine-1-carbonyl)-1H-pyrrole-2-sulfonamide]	0.1626 µM
Cc1[nH]c(S(=O)(=O)N[C@@H]2CCc3c([nH]c4ccccc34)C2)cc1C1=NCC(C)(C)O1 [Compound 68, (R)-4-(5,5-dimethyl-4,5-dihydrooxazol-2-yl)-5-methyl-N-(2,3,4,9-tetrahydro-1H-carbazol-2-yl)-1H-pyrrole-2-sulfonamide]	0.1213 µM
Cc1[nH]c(S(=O)(=O)NC2Cc3cc(Cl)c(Cl)cc3C2)cc1C(=O)N1CC(C)(C#N)C1 [Compound 79, 4-(3-cyano-3-methylazetidine-1-carbonyl)-N-(5,6-dichloro-2,3-dihydro-1H-inden-2-yl)-5-methyl-1H-pyrrole-2-sulfonamide]	0.0599 µM

Further lines, results first:

AC1.4	SMILES
0.6695 µM	CNc1cc2nc(C)[nH]c(=O)c2cc1S(=O)(=O)Nc1ccc(N2C[C@H](C)C[C@@H](C)C2)nc1 [Compound 8, N-(6-((3R,5R)-3,5-dimethylpiperidin-1-yl)pyridin-3-yl)-2-methyl-7-(methylamino)-4-oxo-3,4-dihydroquinazoline-6-sulfonamide]
5.571 µM	CNc1cc2c(cc1S(=O)(=O)N[C@H]1C[C@H](Nc3ccccc3)C1)c(=O)[nH]c(=O)n2C [Compound 100, 1-Methyl-7-(methylamino)-2,4-dioxo-N-((1r,3r)-3-(phenylamino)cyclobutyl)-1,2,3,4-tetrahydroquinazoline-6-sulfonamide]
1.3592 µM	COc1cc2nc(C)[nH]c(=O)c2cc1S(=O)(=O)Nc1ccc(N2C[C@H](C)C[C@@H](C)C2)nc1 [Compound 7, N-(6-((3R,5R)-3,5-dimethylpiperidin-1-yl)pyridin-3-yl)-7-methoxy-2-methyl-4-oxo-3,4-dihydroquinazoline-6-sulfonamide]
4.4808 µM	Cc1nc2ccc(S(=O)(=O)Nc3ccc(N4C[C@H](C)C[C@@H](C)C4)nc3)cc2c(=O)[nH]1 [Compound 5, N-(6-((3R,5R)-3,5-dimethylpiperidin-1-yl)pyridin-3-yl)-2-methyl-4-oxo-3,4-dihydroquinazoline-6-sulfonamide]
0.8832 µM	CNc1cc2c(cc1S(=O)(=O)N[C@H]1C[C@@H](Nc3ccccc3F)C1)c(=O)[nH]c(=O)n2C [Compound 18, N-((cis)-3-((2-fluorophenyl)amino)cyclobutyl)-1-methyl-7-(methylamino)-2,4-dioxo-1,2,3,4-tetrahydroquinazoline-6-sulfonamide]
1.8965 µM	CNc1cc2c(cc1S(=O)(=O)N[C@H]1C[C@@H](Nc3ccc(F)cc3)C1)c(=O)[nH]c(=O)n2C [Compound 25, N-((cis)-3-((4-fluorophenyl)amino)cyclobutyl)-1-methyl-7-(methylamino)-2,4-dioxo-1,2,3,4-tetrahydroquinazoline-6-sulfonamide]
0.6045 µM	CNc1cc2c(cc1S(=O)(=O)N[C@]1(C)C[C@H](Nc3cccc(F)c3)C1)c(=O)[nH]c(=O)n2C [Compound 23, N-((cis)-3-((3-fluorophenyl)amino)-1-methylcyclobutyl)-1-methyl-7-(methylamino)-2,4-dioxo-1,2,3,4-tetrahydroquinazoline-6-sulfonamide]
2.062 µM	CNc1cc2c(cc1S(=O)(=O)N[C@H]1C[C@H](c3cc(C(F)(F)F)ccn3)C1)c(=O)[nH]c(=O)n2C [Compound 60, 1-Methyl-7-(methylamino)-2,4-dioxo-N-((trans)-3-(4-(trifluoromethyl)pyridin-2-yl)cyclobutyl)-1,2,3,4-tetrahydroquinazoline-6-sulfonamide]
2.9024 µM	Cc1[nH]c(S(=O)(=O)Nc2ccc(N3C[C@H](C)C[C@@H](C)C3)nc2)cc1C(=O)N1CC(F)(F)C1 [Compound 49, 4-(3,3-Difluoroazetidine-1-carbonyl)-N-(6-((3R,5R)-3,5-dimethylpiperidin-1-yl)pyridin-3-yl)-5-methyl-1H-pyrrole-2-sulfonamide]
12.21 µM	C[C@@H]1C[C@@H](C)CN(c2ccc(NS(=O)(=O)c3ccc(N(C)C)c(C#N)c3)cn2)C1 (racemic) [Compound 2, 3-Cyano-4-(dimethylamino)-N-(6-(trans-3,5-dimethylpiperidin-l-yl)pyridin-3-yl)benzenesulfonamide]
0.4832 µM	CCOC(=O)c1cc(S(=O)(=O)Nc2ccc(N3C[C@H](C)C[C@@H](C)C3)nc2)[nH]c1C [Compound 30, Ethyl 5-(N-(6-((3R,5R)-3,5-dimethylpiperidin-1-yl)pyridin-3-yl)sulfamoyl)-2-methyl-1H-pyrrole-3-carboxylate]
